This test concerns neonatal rat ventricular myocytes (NRVM). In words: Affymetrix gene expression screening of NRVM. The format is cell-based. More on the design: dose or concentration left out as unconfirmed. The text has this: Affymetrix screening. RNA was extracted from unstimulated NRVM and hypertrophic NRVM exposed to compound 18264 […] (Trizol Reagent, GibcoBRL). RNA samples were converted to biotin-labeled cRNA and hybridized to Rat expression arrays (Affymetrix GeneChip). Arrays were then washed, scanned and quantitated as per manufacturer's instructions.

SMILES strings stand for the structures.

As to `Cc1c(-c2ccccc2)nc2sc3c(c2c1N)CCCC3` [Compound 18264, 3-Methyl-2-phenyl-5,6,7,8-tetrahydro-benzo[4,5]thieno[2,3-b]pyridin-4-ylamine], the “-Fold upreg. of Alpha skeletal actin” value was found to be 2.1 fold; the “-Fold upreg. of Atrial natriuretic factor” value stood at 2.3 fold; the “-Fold upreg. of Brain natriuretic factor” value is on record as 4.1 fold; the “-Fold upreg. of Myosin heavy chain, embryonic” value was 29 fold.

The values above are taken from patent US20050265999A1, “Modulation of 5-HT2 receptors as a treatment for cardiovascular diseases” (Myogen, Inc., priority 2003, published 2005).
